# Biological target: T1, TPM3-TRKA fusion protein (Homo sapiens, UniProt P04629)
# T1 construct: The resulted chimeric proteins always retain the kinase domain of TRK proteins; TPM3 (fusion partner, N-terminal part of tropomyosin alpha-3, P06753); endogenous in cells; host or cells: KM12 colon cancer cells; the other entry of the earlier key: TPM3 (P06753, Tropomyosin alpha-3 chain)
# Assay: TPM3-TRKA fusion protein levels in KM12 cells (Western blot)
# Type: cell-based
# Conditions: 16 h; TPM3-TRKA degradation in KM12 cells at 10 nM compound, category of percentage degradation; read-out: Degradation (at 10 nM)
# Experimental: KM12 cells were treated with DMSO or indicated compounds at 100 nM for 16 hours.
# KM12 cells were treated with DMSO or indicated compounds at 0. 1 nM, 1 nM or 10 nM for 16 hours.
# KM12 cells were treated with DMSO or indicated compounds at various concentrations for 16 hours.
# KM12 cells were treated with DMSO or indicated compounds at various concentrations for 4 hours.
# KM12 cells (a cancer model comprising a colon cancer cell line) were treated with DMSO or indicated compounds at various concentrations for 4 hours.
# KM12 cells were treated with heterobifunctional compounds or their corresponding control compounds at 10 nM or 100 nM for 16 hours.
# KM12 cells were treated with heterobifunctional compounds or their corresponding control compounds at 0.4-30 nM for 8-16 hours. […] Cells were authenticated using the short tandem repeat (STR) assays. […] Stable cell lines were established by lentivirus transduction, selected and maintained in medium containing 1 μg/mL puromycin (Beyotime Biotechnology).
# Cultured cells were washed with cold PBS once and lysed in cold RIPA buffer supplemented with protease inhibitors and phosphatase inhibitors (Beyotime Biotechnology). The solutions were then incubated at 4° C. for 30 minutes with gentle agitation to fully lyse cells. For tumor tissues, tumors were cut into small pieces, milled with cold RIPA buffer using a mechanical homogenizer and lysed for 1 hour at 4° C. Cell lysates were centrifuged at 13,000 rpm for 10 minutes at 4° C. and pellets were discarded. Total protein concentrations in the lysates were determined by BCA assays (Beyotime Biotechnology). Cell lysates were mixed with Laemmli loading buffer to 1× and heated at 99° C. for 5 min. Proteins were resolved on SDS-PAGE and visualized by chemiluminescence. Images were taken by a ChemiDoc MP Imaging system (Bio-Rad). Protein bands were quantitated using the software provided by Bio-Rad.
# T1 sequence (P04629 with tags, fused parts or gaps): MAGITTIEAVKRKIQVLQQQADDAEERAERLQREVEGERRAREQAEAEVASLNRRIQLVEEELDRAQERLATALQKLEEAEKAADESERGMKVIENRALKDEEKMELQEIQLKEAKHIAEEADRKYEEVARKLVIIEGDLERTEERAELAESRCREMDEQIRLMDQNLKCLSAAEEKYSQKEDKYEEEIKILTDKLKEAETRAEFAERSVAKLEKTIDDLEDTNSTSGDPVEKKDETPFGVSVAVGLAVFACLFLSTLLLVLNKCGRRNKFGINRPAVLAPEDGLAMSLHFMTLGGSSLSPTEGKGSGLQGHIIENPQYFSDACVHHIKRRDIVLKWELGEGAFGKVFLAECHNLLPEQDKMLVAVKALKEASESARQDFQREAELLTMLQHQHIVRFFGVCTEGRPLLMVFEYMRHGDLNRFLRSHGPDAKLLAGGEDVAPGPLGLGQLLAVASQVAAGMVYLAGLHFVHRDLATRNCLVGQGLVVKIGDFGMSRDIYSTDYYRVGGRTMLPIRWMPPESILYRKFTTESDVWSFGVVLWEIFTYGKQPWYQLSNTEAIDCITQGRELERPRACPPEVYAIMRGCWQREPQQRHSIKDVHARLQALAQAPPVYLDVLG
row,Compound,percent degradation of TPM3-TRKA protein at 0.01 µM
1,"O=C1CCC(N2C(=O)c3cccc(NCCC(=O)N4CCN(c5ccc(C(=O)Nc6n[nH]c7ccc(Cc8cc(F)cc(F)c8)cc67)c(NC6CCOCC6)c5)CC4)c3C2=O)C(=O)N1 (stereo not shown) [CPD-051, N-(5-(3,5-Difluorobenzyl)-1H-indazol-3-yl)-4-(4-(3-((2-(2,6-dioxopiperidin-3-yl)-1,3-dioxoisoindolin-4-yl)amino)propanoyl)piperazin-1-yl)-2-((tetrahydro-2H-pyran-4-yl)amino)benzamide]",> 80%
2,"O=C1CCC(N2C(=O)c3cccc(NCCCCCCCC(=O)N4CCN(c5ccc(C(=O)Nc6n[nH]c7ccc(Cc8cc(F)cc(F)c8)cc67)c(NC6CCOCC6)c5)CC4)c3C2=O)C(=O)N1 (stereo not shown) [CPD-052, N-(5-(3,5-Difluorobenzyl)-1H-indazol-3-yl)-4-(4-(8-((2-(2,6-dioxopiperidin-3-yl)-1,3-dioxoisoindolin-4-yl)amino)octanoyl)piperazin-1-yl)-2-((tetrahydro-2H-pyran-4-yl)amino)benzamide]",> 80%
3,"O=C1CCC(N2C(=O)c3cccc(NCCOCCOCCOCCOCCOCCC(=O)N4CCN(c5ccc(C(=O)Nc6n[nH]c7ccc(Cc8cc(F)cc(F)c8)cc67)c(NC6CCOCC6)c5)CC4)c3C2=O)C(=O)N1 (stereo not shown) [CPD-054, N-(5-(3,5-Difluorobenzyl)-1H-indazol-3-yl)-4-(4-(1-((2-(2,6-dioxopiperidin-3-yl)-1,3-dioxoisoindolin-4-yl)amino)-3,6,9,12, 15-pentaoxaoctadecan-18-oyl)piperazin-1-yl)-2-((tetrahydro-2H-pyran-4-yl)amino)benzamide]",> 80%
4,"O=C1CCC(N2C(=O)c3cccc(NCC(=O)N4CCN(c5ccc(C(=O)Nc6n[nH]c7ccc(Cc8cc(F)cc(F)c8)cc67)c(NC6CCOCC6)c5)CC4)c3C2=O)C(=O)N1 (stereo not shown) [CPD-055, N-(5-(3,5-Difluorobenzyl)-1HI-indazol-3-yl)-4-(4-((2-(2,6-dioxopiperidin-3-yl)-1,3-dioxoisoindolin-4-yl)glycyl)piperazin-1-yl)-2-((tetrahydro-2H-pyran-4-yl)amino)benzamide]",> 80%
5,"O=C1CCC(N2C(=O)c3cccc(NCCCCCC(=O)N4CCN(c5ccc(C(=O)Nc6n[nH]c7ccc(Cc8cc(F)cc(F)c8)cc67)c(NC6CCOCC6)c5)CC4)c3C2=O)C(=O)N1 (stereo not shown) [CPD-056, N-(5-(3,5-Difluorobenzyl)-1H-indazol-3-yl)-4-(4-(6-((2-(2,6-dioxopiperidin-3-yl)-1,3-dioxoisoindolin-4-yl)amino)hexanoyl)piperazin-1-yl)-2-((tetrahydro-2H-pyran-4-yl)amino)benzamide]",> 80%
6,"Cc1ncsc1-c1ccc(CNC(=O)[C@@H]2C[C@@H](O)CN2C(=O)[C@@H](NC(=O)COCCOCCOCC(=O)N2CCN(c3ccc(C(=O)Nc4n[nH]c5ccc(Cc6cc(F)cc(F)c6)cc45)c(NC4CCOCC4)c3)CC2)C(C)(C)C)cc1 [CPD-058, (25,4R)-1-((S)-2-(tert-butyl)-14-(4-(4-((5-(3,5-Difluorobenzyl)-1H-indazol-3-yl)carbamoyl)-3-((tetrahydro-2H-pyran-4-yl)amino)phenyl)piperazin-1-yl)-4,14-dioxo-6,9,12-trioxa-3-azatetradecanoyl)-4-hydroxy-N-(4-(4-methylthiazol-5-yl)benzyl)pyrrolidine-2-carboxamide]",< 50%
7,"O=C(CN1CCN(c2cccc(-c3cnc4ccc(N5CCC[C@@H]5c5cccc(F)c5)nn34)n2)CC1)NCCOCCOCCOCCNc1cccc2c1C(=O)N(C1CCC(=O)NC1=O)C2=O (stereo partly drawn) [CPD-059, N-(2-(2-(2-(2-((2-(2,6-Dioxopiperidin-3-yl)-1,3-dioxoisoindolin-4-yl)amino)ethoxy)ethoxy)ethoxy)ethyl)-2-(4-(6-(6-((R)-2-(3-fluorophenyl)pyrrolidin-1-yl)imidazo[1,2-b]pyridazin-3-yl)pyridin-2-yl)piperazin-1-yl)acetamide]",> 80%
8,"O=C(CN1CCN(c2cccc(-c3cnc4ccc(N5CCC[C@@H]5c5cccc(F)c5)nn34)n2)CC1)NCCNc1cccc2c1C(=O)N(C1CCC(=O)NC1=O)C2=O (stereo partly drawn) [CPD-060, N-(2-((2˜ (2,6-Dioxopiperidin-3-yl)-1,3-dioxoisoindolin-4-yl)amino)ethyl)-2-(4-(6-(6-((R)-2-(3-fluorophenyl)pyrrolidin-1-yl)imidazo[1,2-b]pyridazin-3-yl)pyridin-2-yl)piperazin-1-yl)acetamide]",> 80%
9,"Cc1ncsc1-c1ccc(CNC(=O)[C@@H]2C[C@@H](O)CN2C(=O)[C@@H](NC(=O)CCCCCCCNC(=O)CN2CCN(c3ccc(C(=O)Nc4n[nH]c5ccc(Cc6cc(F)cc(F)c6)cc45)c(NC4CCOCC4)c3)CC2)C(C)(C)C)cc1 [CPD-061, (2S,4R)-1-((S)-2-(8-(2-(4-(4-((5-(3,5-Difluorobenzyl)-1H-indazol-3-yl)carbamoyl)-3-((tetrahydro-2H-pyran-4-yl)amino)phenyl)piperazin-1-yl)acetamido)octanamido)-3,3-dimethylbutanoyl)-4-hydroxy-N-(4-(4-methylthiazol-5-yl)benzyl)pyrrolidine-2-carboxamide]",< 50%
10,"O=C(CN1CCN(c2ccc(C(=O)Nc3n[nH]c4ccc(Cc5cc(F)cc(F)c5)cc34)c(NC3CCOCC3)c2)CC1)NCCNc1cccc2c1C(=O)N(C1CCC(=O)NC1=O)C2=O (stereo not shown) [CPD-062, N-(5-(3,5-Difluorobenzyl)-1H-indazol-3-yl)-4-(4-(2-((2-((2-(2,6-dioxopiperidin-3-yl)-1,3-dioxoisoindolin-4-yl)amino)ethyl)amino)-2-oxoethyl)piperazin-1-yl)-2-((tetrahydro-2H-pyran-4-yl)amino)benzamide]",> 80%
11,"O=C(CN1CCN(c2ccc(C(=O)Nc3n[nH]c4ccc(Cc5cc(F)cc(F)c5)cc34)c(NC3CCOCC3)c2)CC1)NCCOCCOCCOCCNc1cccc2c1C(=O)N(C1CCC(=O)NC1=O)C2=O (stereo not drawn) [CPD-064, N—(S-(3,5-Difluorobenzyl)-1H-indazol-3-yl)-4-(4-(14-((2-(2,6-dioxopiperidin-3-yl)-1,3-dioxoisoindolin-4-yl)amino)-2-oxo-6,9,12-trioxa-3-azatetradecyl)piperazin-1-yl)-2-((tetrahydro-2H-pyran-4-yl)amino)benzamide]",> 80%
12,"O=C(CN1CCN(c2ccc(C(=O)Nc3n[nH]c4ccc(Cc5cc(F)cc(F)c5)cc34)c(NC3CCOCC3)c2)CC1)NCCOCCOCCOCCOCCOCCNc1cccc2c1C(=O)N(C1CCC(=O)NC1=O)C2=O (stereo not shown) [CPD-065, N-(5-(3,5-Difluorobenzyl)-1H-indazol-3-yl)-4-(4-(20-((2-(2,6-dioxopiperidin-3-yl)-1,3-dioxoisoindolin-4-yl)amino)-2-oxo-6,9,12,15,18-pentaoxa-3-azaicosyl)piperazin-1-yl)-2-((tetrahydro-2H-pyran-4-yl)amino)benzamide]",> 80%
13,"O=C(CN1CCN(c2cccc(-c3cnc4ccc(N5CCC[C@@H]5c5cccc(F)c5)nn34)n2)CC1)NCCOCCOCCOCCOCCOCCNc1cccc2c1C(=O)N(C1CCC(=O)NC1=O)C2=O (stereo partly drawn) [TR-104, N-(17-((2-(2,6-dioxopiperidin-3-yl)-1,3-dioxoisoindolin-4-yl)amino)-3,6,9,12,15-pentaoxaheptadecyl)-2-(4-(6-(6-((R)-2-(3-fluorophenyl)pyrrolidin-1-yl)imidazo[1,2-b]pyridazin-3-yl)pyridin-2-yl)piperazin-1-yl)acetamide]",> 80%
14,"O=C(CN1CCN(c2cccc(-c3cnc4ccc(N5CCC[C@@H]5c5cccc(F)c5)nn34)n2)CC1)NCCOCCOCCNc1cccc2c1C(=O)N(C1CCC(=O)NC1=O)C2=O (stereo partly drawn) [TR-105, N-(2-(2-(2-((2-(2,6-dioxopiperidin-3-yl)-1,3-dioxoisoindolin-4-yl)amino)ethoxy)ethoxy)ethyl)-2-(4-(6-(6-((R)-2-(3-fluorophenyl)pyrrolidin-1-yl)imidazo[1,2-b]pyridazin-3-yl)pyridin-2-yl)piperazin-1-yl)acetamide]",> 80%
15,"O=C(CN1CCN(c2cccc(-c3cnc4ccc(N5CCC[C@@H]5c5cccc(F)c5)nn34)n2)CC1)NCCCCNc1cccc2c1C(=O)N(C1CCC(=O)NC1=O)C2=O (stereo partly drawn) [TR-107, N-(4-((2-(2,6-dioxopiperidin-3-yl)-1,3-dioxoisoindolin-4-yl)amino)butyl)-2-(4-(6-(6-((R)-2-(3-fluorophenyl)pyrrolidin-1-yl)imidazo[1,2-b]pyridazin-3-yl)pyridin-2-yl)piperazin-1-yl)acetamide]",> 80%

# Same assay, conditions: KM12 cells, 100 nM, indicated incubation time, Western blot (FIG. 2)
row,Compound,TPM3-TRKA protein levels
1,"O=C(CN1CCN(c2cccc(-c3cnc4ccc(N5CCC[C@@H]5c5cccc(F)c5)nn34)n2)CC1)NCCNc1cccc2c1C(=O)N(C1CCC(=O)NC1=O)C2=O (stereo partly drawn) [CPD-060, N-(2-((2˜ (2,6-Dioxopiperidin-3-yl)-1,3-dioxoisoindolin-4-yl)amino)ethyl)-2-(4-(6-(6-((R)-2-(3-fluorophenyl)pyrrolidin-1-yl)imidazo[1,2-b]pyridazin-3-yl)pyridin-2-yl)piperazin-1-yl)acetamide]",rapidly reduced TPM3-TRKA protein levels
